Source: patent US20260285850A1, “SUBSTITUTED OXAZOLIDINONES AND IMIDAZOLINONES AS HERBICIDES” (FMC CORPORATION, priority 2023, published 2026)

Tests used:
Type in all cases: in vivo
[1] = system: oat, wild (wild oat, Avena fatua); experiment: Test A preemergence soil spray, visual injury rating 0-100; details: 10 days, 0 = no effect, 100 = complete control
In short: (§1)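 Directed preemergence spray onto seeded soil or postemergence spray onto 2-10 cm plants (loam plus sand); compound carried in surfactant-containing non-phytotoxic solvent. Injury rated by eye after 10 d greenhouse growth; 0 = no effect, 100 = complete control.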

[2] = system: green foxtail (Setaria viridis); experiment: as above; details: 10 days, 0 = no effect, 100 = complete control
In short: as §1

[3] = system: palmer (palmer amaranth, palmer pigweed, Amaranthus palmeri); experiment: as above; details: 10 days, 0 = no effect, 100 = complete control
In short: as §1

[4] = system: blackgrass (Alopecurus myosuroides); experiment: as above; details: 10 days, 0 = no effect, 100 = complete control
In short: as §1

[5] = system: ryegrass, Italian (italian ryegrass, Lolium multiflorum); experiment: as above; details: 10 days, 0 = no effect, 100 = complete control
In short: as §1

corn (Zea mays) [6] = experiment: as above; details: 10 days, 0 = no effect, 100 = complete control
In short: as §1

kochia (Bassia scoparia) [7] = experiment: as above; details: 10 days, 0 = no effect, 100 = complete control
In short: as §1

soybean (Glycine max) [8] = experiment: as above; details: 10 days, 0 = no effect, 100 = complete control
In short: as §1

[9] = system: barnyardgrass (Echinochloa crus-galli); experiment: as above; details: 10 days, 0 = no effect, 100 = complete control
In short: as §1

[10] = system: wheat (Triticum aestivum); experiment: as above; details: 10 days, 0 = no effect, 100 = complete control
In short: as §1

[11] = system: ragweed (common ragweed, Ambrosia artemisiifolia); experiment: as above; details: 10 days, 0 = no effect, 100 = complete control
In short: as §1

[12] = system: oat, wild (wild oat, Avena fatua); experiment: Test A postemergence application, visual injury rating 0-100; details: 10 days
In short: as §1

[13] = system: green foxtail (Setaria viridis); experiment: as above; details: 10 days
In short: as §1

[14] = system: palmer (palmer amaranth, palmer pigweed, Amaranthus palmeri); experiment: as above; details: 10 days
In short: as §1

[15] = system: blackgrass (Alopecurus myosuroides); experiment: as above; details: 10 days
In short: as §1

[16] = system: ryegrass, Italian (italian ryegrass, Lolium multiflorum); experiment: as above; details: 10 days
In short: as §1

corn (Zea mays) [17] = experiment: as above; details: 10 days
In short: as §1

kochia (Bassia scoparia) [18] = experiment: as above; details: 10 days
In short: as §1

soybean (Glycine max) [19] = experiment: as above; details: 10 days
In short: as §1

[20] = system: barnyardgrass (Echinochloa crus-galli); experiment: as above; details: 10 days
In short: as §1

[21] = system: wheat (Triticum aestivum); experiment: as above; details: 10 days
In short: as §1

[22] = system: ragweed (common ragweed, Ambrosia artemisiifolia); experiment: as above; details: 10 days
In short: as §1

[23] = system: galium (catchweed bedstraw, Galium aparine); experiment: as above; details: 10 days
In short: as §1

[24] = system: horseweed (Erigeron canadensis); experiment: as above; details: 10 days
In short: as §1

[25] = system: barnyardgrass (Echinochloa crusgalli); experiment: Test B flooded paddy test, visual plant response rating 0-100; details: 250 g ai/ha, Flood, applied to paddy water, evaluated after 13 days
In short: (§2)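 Paddy-water application: test compounds went directly into water flooded 3 cm above the soil surface, with plants at 2 leaves. After a 13-day greenhouse period, responses were judged by eye relative to controls; a dash marks an untested entry.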

[26] = system: sedge, umbrella (small-flower umbrella sedge, Cyperus difformis); experiment: as above; details: 250 g ai/ha, Flood, applied to paddy water, evaluated after 13 days
In short: as §2

rice (Oryza sativa) = experiment: as above; details: 250 g ai/ha, Flood, applied to paddy water, evaluated after 13 days
In short: as §2

[27] = system: ducksalad (Heteranthera limosa); experiment: as above; details: 250 g ai/ha, Flood, applied to paddy water, evaluated after 13 days
In short: as §2

[28] = 31 g ai/ha, postemergence, 0 = no effect, 100 = complete control
[29] = Postemergence, 125 g ai/ha, 0 is no effect, 100 is complete control

CC1(C(=O)NC2CC=C(C(=O)OCC(F)(F)F)C2)CN(c2cc(F)cc(F)c2)C(=O)O1 (single isomer, unassigned) [Compound 24]
Oat, Wild plant response rating (0-100) ([1]; 31 g ai/ha): 0 | Oat, Wild plant response rating (0 to 100 scale) ([1]; 125 g ai/ha): 20 | Foxtail, Green plant response rating (0-100) ([2]; 31 g ai/ha): 50 | Foxtail, Green plant response rating (0 to 100 scale) ([2]; 125 g ai/ha): 50 | Amaranth, Palmer plant response rating (0-100) ([3]; 31 g ai/ha): 30 | Amaranth, Palmer plant response rating (0 to 100 scale) ([3]; 125 g ai/ha): 70 | Blackgrass plant response rating (0-100) ([4]; 31 g ai/ha): 0 | Blackgrass plant response rating (0 to 100 scale) ([4]; 125 g ai/ha): 0 | Ryegrass, Italian plant response rating (0-100) ([5]; 31 g ai/ha): 0 | Ryegrass, Italian plant response rating (0 to 100 scale) ([5]; 125 g ai/ha): 0 | Corn plant response rating (0-100) (corn (Zea mays) [6]; 31 g ai/ha): 0 | Corn plant response rating (0 to 100 scale) (corn (Zea mays) [6]; 125 g ai/ha): 0 | Kochia plant response rating (0-100) (kochia (Bassia scoparia) [7]; 31 g ai/ha): 0 | Kochia plant response rating (0 to 100 scale) (kochia (Bassia scoparia) [7]; 125 g ai/ha): 0 | Soybean plant response rating (0-100) (soybean (Glycine max) [8]; 31 g ai/ha): 0 | Soybean plant response rating (0 to 100 scale) (soybean (Glycine max) [8]; 125 g ai/ha): 10 | Barnyardgrass plant response rating (0-100) ([9]; 31 g ai/ha): 10 | Barnyardgrass plant response rating (0 to 100 scale) ([9]; 125 g ai/ha): 10 | Wheat plant response rating (0-100) ([10]; 31 g ai/ha): 0 | Wheat plant response rating (0 to 100 scale) ([10]; 125 g ai/ha): 70 | Ragweed plant response rating (0-100) ([11]; 31 g ai/ha): 0 | Ragweed plant response rating (0 to 100 scale) ([11]; 125 g ai/ha): 10 | Oat, Wild plant response rating (0-100) [12, 28]: 10 | Oat, Wild plant response rating (0 to 100 scale) [12, 29]: 60 | Foxtail, Green plant response rating (0-100) [13, 28]: 0 | Foxtail, Green plant response rating (0 to 100 scale) [13, 29]: 60 | Amaranth, Palmer plant response rating (0-100) [14, 28]: 0 | Amaranth, Palmer / Pigweed, Palmer plant response rating (0 to 100 scale) [14, 29]: 40 | Blackgrass plant response rating (0-100) [15, 28]: 0 | Blackgrass plant response rating (0 to 100 scale) [15, 29]: 60 | Ryegrass, Italian plant response rating (0-100) [16, 28]: 40 | Ryegrass, Italian plant response rating (0 to 100 scale) [16, 29]: 60 | Corn plant response rating (0-100) (corn (Zea mays) [17]; [28]): 10 | Corn plant response rating (0 to 100 scale) (corn (Zea mays) [17]; [29]): 90 | Kochia plant response rating (0-100) (kochia (Bassia scoparia) [18]; [28]): 20 | Kochia plant response rating (0 to 100 scale) (kochia (Bassia scoparia) [18]; [29]): 90 | Soybean plant response rating (0-100) (soybean (Glycine max) [19]; [28]): 0 | Soybean plant response rating (0 to 100 scale) (soybean (Glycine max) [19]; [29]): 60 | Barnyardgrass plant response rating (0-100) [20, 28]: 20 | Barnyardgrass plant response rating (0 to 100 scale) [20, 29]: 80 | Wheat plant response rating (0-100) [21, 28]: 30 | Wheat plant response rating (0 to 100 scale) [21, 29]: 90 | Ragweed plant response rating (0-100) [22, 28]: 20 | Ragweed plant response rating (0 to 100 scale) [22, 29]: 30 | Galium plant response rating (0-100) [23, 28]: 40 | Galium plant response rating (0 to 100 scale) [23, 29]: 80 | Horseweed plant response rating (0-100) [24, 28]: 20 | Horseweed plant response rating (0 to 100 scale) [24, 29]: 10 | Plant response rating, Barnyardgrass (0 to 100 scale, 0 is no effect and 100 is complete control) [25]: 0 | Plant response rating, Sedge, Umbrella (0 to 100 scale, 0 is no effect and 100 is complete control) [26]: 0 | Plant response rating, Rice (0 to 100 scale, 0 is no effect and 100 is complete control) (rice (Oryza sativa)): 0 | Plant response rating, Ducksalad (0 to 100 scale, 0 is no effect and 100 is complete control) [27]: 0
